# From patent US10047051B2, “Substituted pyridines and method of use” (AbbVie S.á{acute over (.)}r.l., priority 2015, dated 2018)
# Experiments:
# [1] = target: T1, CFTR ΔF508 mutant (Homo sapiens, UniProt P13569, DEL508-508); test: YFP-halide influx assay for the CFTR-ΔF508 mutation (CFBE41o- cells); format: cell-based; conditions: forskolin 10.67 μM; for EC50: from (1−F/F0) vs concentration plot
# T1 construct: expressed in transfected cells; host or cells: CFBE41o- cells, adenoviral transduction
# Procedure, shortened: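 EC50 derived from plotting 1−F/F0 (fluorescence 36 s after iodide injection over pre-injection value) against compound concentration. Cells: CFBE41o- transduced with ΔF508-CFTR and YFP quench reporter, corrected 24 h at 27° C or by a CFTR modulator at 37° C.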
# [2] = target: T2, CFTR G551D mutant (Homo sapiens, UniProt P13569, G551D); test: YFP-halide influx assay for the CFTR-G551D mutation (HEK293 cells); format: cell-based; conditions: forskolin 10.67 μM
# T2 construct: expressed in transfected cells; host or cells: HEK293 cells, reverse transfection with plasmids
# Procedure, shortened: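 Channel opening read as I⁻-driven quenching of a YFP H148Q/I152L/F47L reporter over 7 s post-injection, expressed as 1−F/F0 and fitted against concentration for EC50. Cells were HEK293 co-transfected at seeding with G551D CFTR plus reporter, then grown 24 h at 37 °C, 5% CO2.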
# T2 sequence (P13569 whole entry G551D): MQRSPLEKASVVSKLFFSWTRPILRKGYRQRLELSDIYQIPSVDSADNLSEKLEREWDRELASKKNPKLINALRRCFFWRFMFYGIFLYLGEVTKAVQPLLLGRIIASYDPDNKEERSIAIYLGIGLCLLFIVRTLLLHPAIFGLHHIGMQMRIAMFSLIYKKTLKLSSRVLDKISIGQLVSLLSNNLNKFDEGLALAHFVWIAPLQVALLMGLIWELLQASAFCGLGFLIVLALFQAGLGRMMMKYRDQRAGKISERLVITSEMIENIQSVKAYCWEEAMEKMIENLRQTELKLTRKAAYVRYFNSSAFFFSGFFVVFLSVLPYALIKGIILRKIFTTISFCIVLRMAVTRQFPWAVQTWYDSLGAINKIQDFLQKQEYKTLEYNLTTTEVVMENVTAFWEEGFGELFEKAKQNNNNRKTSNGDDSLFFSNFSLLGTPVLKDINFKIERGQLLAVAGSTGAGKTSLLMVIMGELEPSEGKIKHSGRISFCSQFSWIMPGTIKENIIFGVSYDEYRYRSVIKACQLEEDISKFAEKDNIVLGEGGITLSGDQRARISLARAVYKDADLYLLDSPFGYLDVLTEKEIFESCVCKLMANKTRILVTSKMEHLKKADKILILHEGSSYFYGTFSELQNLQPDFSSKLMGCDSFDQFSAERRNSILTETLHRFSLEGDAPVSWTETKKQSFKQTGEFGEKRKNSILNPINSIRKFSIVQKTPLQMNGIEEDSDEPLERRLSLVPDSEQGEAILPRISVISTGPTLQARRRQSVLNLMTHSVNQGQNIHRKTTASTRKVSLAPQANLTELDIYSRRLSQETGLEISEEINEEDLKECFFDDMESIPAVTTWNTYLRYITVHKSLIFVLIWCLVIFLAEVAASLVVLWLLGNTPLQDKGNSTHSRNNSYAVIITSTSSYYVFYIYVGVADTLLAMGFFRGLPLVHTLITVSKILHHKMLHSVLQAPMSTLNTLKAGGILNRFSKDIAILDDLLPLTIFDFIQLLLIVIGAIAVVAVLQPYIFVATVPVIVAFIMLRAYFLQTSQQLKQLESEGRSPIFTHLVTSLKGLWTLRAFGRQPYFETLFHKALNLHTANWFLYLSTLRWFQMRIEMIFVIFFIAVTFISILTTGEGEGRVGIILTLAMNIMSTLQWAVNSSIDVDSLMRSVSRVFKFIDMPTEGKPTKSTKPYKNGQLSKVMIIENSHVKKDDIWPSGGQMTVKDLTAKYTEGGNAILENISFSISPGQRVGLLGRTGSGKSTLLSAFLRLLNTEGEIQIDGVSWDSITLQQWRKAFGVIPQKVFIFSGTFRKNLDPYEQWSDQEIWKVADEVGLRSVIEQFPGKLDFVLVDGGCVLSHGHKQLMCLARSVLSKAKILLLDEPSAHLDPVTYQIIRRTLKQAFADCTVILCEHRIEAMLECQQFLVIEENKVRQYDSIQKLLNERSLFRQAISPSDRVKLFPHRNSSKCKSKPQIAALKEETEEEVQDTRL
# T1 sequence (P13569 with tags, fused parts or gaps DEL508-508): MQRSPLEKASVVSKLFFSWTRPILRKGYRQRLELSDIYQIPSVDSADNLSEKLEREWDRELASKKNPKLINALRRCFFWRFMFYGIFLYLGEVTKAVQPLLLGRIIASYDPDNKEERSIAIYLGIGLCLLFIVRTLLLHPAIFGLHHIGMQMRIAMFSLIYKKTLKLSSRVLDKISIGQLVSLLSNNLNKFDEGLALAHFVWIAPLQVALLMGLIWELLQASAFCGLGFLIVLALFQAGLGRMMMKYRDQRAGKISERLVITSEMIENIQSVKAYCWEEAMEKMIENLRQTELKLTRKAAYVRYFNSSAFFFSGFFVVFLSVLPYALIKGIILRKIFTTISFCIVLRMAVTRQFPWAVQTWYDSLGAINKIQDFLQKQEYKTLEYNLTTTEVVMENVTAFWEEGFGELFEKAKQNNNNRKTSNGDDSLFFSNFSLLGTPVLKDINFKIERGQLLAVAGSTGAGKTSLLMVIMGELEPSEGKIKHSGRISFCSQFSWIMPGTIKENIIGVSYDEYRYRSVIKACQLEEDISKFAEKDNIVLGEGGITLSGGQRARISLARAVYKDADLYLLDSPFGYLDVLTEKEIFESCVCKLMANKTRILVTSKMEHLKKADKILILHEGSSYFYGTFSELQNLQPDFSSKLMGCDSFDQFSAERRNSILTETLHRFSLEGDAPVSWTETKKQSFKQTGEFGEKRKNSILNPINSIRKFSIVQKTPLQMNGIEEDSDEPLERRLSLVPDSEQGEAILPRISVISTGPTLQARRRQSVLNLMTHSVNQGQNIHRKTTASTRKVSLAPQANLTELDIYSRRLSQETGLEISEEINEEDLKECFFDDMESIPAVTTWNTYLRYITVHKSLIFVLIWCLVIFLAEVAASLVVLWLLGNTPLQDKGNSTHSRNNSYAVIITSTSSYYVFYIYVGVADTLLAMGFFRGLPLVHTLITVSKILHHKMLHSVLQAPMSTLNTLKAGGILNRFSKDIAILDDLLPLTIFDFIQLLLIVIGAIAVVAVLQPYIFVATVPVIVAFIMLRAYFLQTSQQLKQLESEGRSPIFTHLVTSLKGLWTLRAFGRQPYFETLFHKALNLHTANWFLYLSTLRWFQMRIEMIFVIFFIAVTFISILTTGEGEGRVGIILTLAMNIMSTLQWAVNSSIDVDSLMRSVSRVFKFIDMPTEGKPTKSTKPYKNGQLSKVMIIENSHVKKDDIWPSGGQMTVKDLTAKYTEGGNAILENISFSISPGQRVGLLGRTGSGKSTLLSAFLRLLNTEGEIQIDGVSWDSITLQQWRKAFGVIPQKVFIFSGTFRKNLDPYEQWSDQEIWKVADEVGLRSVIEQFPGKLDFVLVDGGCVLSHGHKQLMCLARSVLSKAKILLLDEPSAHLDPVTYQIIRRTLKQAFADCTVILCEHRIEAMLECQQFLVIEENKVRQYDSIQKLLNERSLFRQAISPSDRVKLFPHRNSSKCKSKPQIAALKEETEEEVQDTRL
SMILES,% Activation [1],EC50 [1],% Activation [2],EC50 [2]
"Nc1cc(S(=O)(=O)c2cccc(F)c2)cnc1C(=O)N1CC(O)(C(F)(F)F)C1 [Compound 256, {3-amino-5-[(3-fluorophenyl)sulfonyl]pyridin-2-yl}[3-hydroxy-3-(trifluoromethyl)azetidin-1-yl]methanone]",107.4%,0.66 nM,45.6%,> 3330 nM
"Nc1cc(S(=O)(=O)c2ccc(C(F)(F)F)cc2)cnc1C(=O)N1CC(OC(F)F)C1 [Compound 158, (3-amino-5-{[4-(trifluoromethyl)phenyl]sulfonyl}pyridin-2-yl)[3-(difluoromethoxy)azetidin-1-yl]methanone]",114.3%,31.6 nM,29.2%,> 10000 nM
"Nc1cc(S(=O)(=O)N2CCCC(F)C2)cnc1C(=O)NCC(O)C(F)(F)F (stereo not drawn) [Compound 194, 3-amino-5-[(3-fluoropiperidin-1-yl)sulfonyl]-N-(3,3,3-trifluoro-2-hydroxypropyl)pyridine-2-carboxamide]",95.7%,32.7 nM,62.3%,1780 nM
"CC(C)NC(=O)CNC(=O)c1ncc(S(=O)(=O)N2CCC[C@@H]2C)cc1N [Compound 270, 3-amino-5-{[(2S)-2-methylpyrrolidin-1-yl]sulfonyl}-N-[2-oxo-2-(propan-2-ylamino)ethyl]pyridine-2-carboxamide]",100.0%,143 nM,23.8%,> 10000 nM
"CC(C)OCC(O)CNC(=O)c1ncc(S(=O)(=O)c2ccc(OC(F)(F)F)cc2)cc1N (stereo not drawn) [Compound 90, 3-amino-N-[2-hydroxy-3-(propan-2-yloxy)propyl]-5-{[4-(trifluoromethoxy)phenyl]sulfonyl}pyridine-2-carboxamide]",101.0%,4 nM,86.8%,216 nM
"Nc1cc(S(=O)(=O)N2CCOCC2)cnc1C(=O)NCC(O)C(F)(F)F (stereo not drawn) [Compound 139, 3-amino-5-(morpholin-4-ylsulfonyl)-N-(3,3,3-trifluoro-2-hydroxypropyl)pyridine-2-carboxamide]",96.6%,61.2 nM,40.6%,5770 nM
"Nc1cc(S(=O)(=O)c2ccc(C(F)(F)F)cc2F)cnc1C(=O)NC[C@H]1CCOC1 [Compound 106, 3-amino-5-{[2-fluoro-4-(trifluoromethyl)phenyl]sulfonyl}-N-[(3R)-tetrahydrofuran-3-ylmethyl]pyridine-2-carboxamide]",99.0%,19.5 nM,42.4%,> 3330 nM
"Nc1cc(S(=O)(=O)c2ccc(OC(F)(F)F)cc2)cnc1C(=O)NNC(=O)CO [Compound 287, 3-amino-N′-(hydroxyacetyl)-5-{[4-(trifluoromethoxy)phenyl]sulfonyl}pyridine-2-carbohydrazide]",83.4%,256 nM,24.3%,
"Nc1cc(S(=O)(=O)c2ccc(OC(F)(F)F)cc2)cnc1C(=O)NC1CCOC1 (stereo not drawn) [Compound 127, 3-amino-N-(tetrahydrofuran-3-yl)-5-{[4-(trifluoromethoxy)phenyl]sulfonyl}pyridine-2-carboxamide]",107.0%,82.9 nM,61.2%,1880 nM
"C[C@H](O)CNC(=O)c1nc(NC2CC2)c(S(=O)(=O)c2ccc(OC(F)(F)F)cc2)cc1N [Compound 285, 3-amino-6-(cyclopropylamino)-N-[(2S)-2-hydroxypropyl]-5-{[4-(trifluoromethoxy)phenyl]sulfonyl}pyridine-2-carboxamide]",86.7%,4.2 nM,52.5%,776 nM
"Nc1cc(S(=O)(=O)c2ccc(OC(F)(F)F)cc2)cnc1C(=O)NC1CCOCC1 [Compound 146, 3-amino-N-(tetrahydro-2H-pyran-4-yl)-5-{[4-(trifluoromethoxy)phenyl]sulfonyl}pyridine-2-carboxamide]",88.4%,91.4 nM,58.4%,3110 nM
"COCCC(C)(O)CNC(=O)c1ncc(S(=O)(=O)c2ccc(C(F)(F)F)cc2F)cc1N (stereo not drawn) [Compound 163, 3-amino-5-{[2-fluoro-4-(trifluoromethyl)phenyl]sulfonyl}-N-(2-hydroxy-4-methoxy-2-methylbutyl)pyridine-2-carboxamide]",97.0%,22.6 nM,71.9%,2300 nM
"Nc1cc(S(=O)(=O)c2ccc(OC(F)(F)F)cc2)cnc1C(=O)N1CCC(F)(F)C1 [Compound 203, (3-amino-5-{[4-(trifluoromethoxy)phenyl]sulfonyl}pyridin-2-yl)(3,3-difluoropyrrolidin-1-yl)methanone]",92.6%,47.3 nM,57.3%,1270 nM
"CC[C@@H](CO)NC(=O)c1ncc(S(=O)(=O)c2ccc(C(F)(F)F)cc2)cc1N [Compound 234, 3-amino-N-[(2S)-1-hydroxybutan-2-yl]-5-{[4-(trifluoromethyl)phenyl]sulfonyl}pyridine-2-carboxamide]",102.4%,39.3 nM,46.1%,1090 nM
"COCCN(C1CC1)S(=O)(=O)c1cnc(C(=O)NCC(O)C(F)(F)F)c(N)c1 (stereo not drawn) [Compound 108, 3-amino-5-[cyclopropyl(2-methoxyethyl)sulfamoyl]-N-(3,3,3-trifluoro-2-hydroxypropyl)pyridine-2-carboxamide]",110.0%,18.2 nM,56.8%,1700 nM
"Nc1cc(S(=O)(=O)c2ccc(C(F)(F)F)cc2)cnc1C(=O)N1CCC[C@@H]1CO [Compound 233, (3-amino-5-{[4-(trifluoromethyl)phenyl]sulfonyl}pyridin-2-yl) [(2R)-2-(hydroxymethyl)pyrrolidin-1-yl]methanone]",44.9%,1390 nM,5.4%,> 10000 nM
"CC(C)(O)CNC(=O)c1ncc(S(=O)(=O)c2ccc(F)cc2)cc1N [Compound 10, 3-amino-5-[(4-fluorophenyl)sulfonyl]-N-(2-hydroxy-2-methylpropyl)pyridine-2-carboxamide]",106.4%,148 nM,52.2%,> 3330 nM
"CN1CCC(O)(CNC(=O)c2ncc(S(=O)(=O)c3ccc(C(F)(F)F)cc3)cc2N)CC1 [Compound 230, 3-amino-N-[(4-hydroxy-1-methylpiperidin-4-yl)methyl]-5-{[4-(trifluoromethyl)phenyl]sulfonyl}pyridine-2-carboxamide]",12.4%,> 2000 nM,1.5%,> 10000 nM
"Nc1cc(S(=O)(=O)c2ccc(C(F)(F)F)cc2)cnc1C(=O)N1CC(O)(C(F)(F)F)C1 [Compound 105, (3-amino-5-{[4-(trifluoromethyl)phenyl]sulfonyl}pyridin-2-yl)[3-hydroxy-3-(trifluoromethyl)azetidin-1-yl]methanone]",103.5%,2 nM,50.4%,128 nM
